Reference: US20120225061A1, “TETRASUBSTITUTED CYCLOHEXYL COMPOUNDS AS KINASE INHIBITORS” (priority 2011, published 2012)
pEC50, pIC50: −log10 of the molar value. Read-outs that look alike come from different tables or passages of the source.

Key:
[1] = molecular target: Pim3 kinase (Homo sapiens, UniProt Q86V86); experiment: Pim3 AlphaScreen assay (high ATP)
[2] = molecular target: Pim1 kinase (Homo sapiens, UniProt P11309); experiment: Pim1 AlphaScreen assay (high ATP)
[3] = molecular target: T1, Pim2 kinase (Homo sapiens, UniProt Q9P1W9); experiment: KinaseGlo Pim2 ATP depletion assay; assay type: biochemical; details: Table 4, 5 nM PIM2, 4 μM ATP, 10 μM BAD peptide
Description: The activity of PIM2 is measured using a luciferase-luciferin based ATP detection reagent to quantify ATP depletion resulting from kinase-catalyzed phosphoryl transfer to a peptide substrate. Compounds to be tested are dissolved in 100% DMSO and directly distributed into white 384-well plates at 0.5 μl per well. […] After 15 minutes, 10 μl of 8 μM ATP in assay buffer is added. Final assay concentrations are 5 nM PIM2, 4 μM ATP, 10 μM BAD peptide and 2.5% DMSO. The reaction is performed until approximately 50% of the ATP is depleted, then stopped with the addition of 20 μl KinaseGlo Plus (Promega Corporation) solution. The stopped reaction is incubated for 10 minutes and the remaining ATP detected via luminescence on the Victor2 (Perkin Elmer).

[4] = tested on: KMS11 (human myeloma cell line); experiment: Cell proliferation assay (CellTiter-Glo) in KMS11 cells; assay type: cell-based; details: KMS-11, 72 h, read-out: KMS11-luc EC50
How it was run: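 KMS11 cells at 2000 per well in IMDM/10% FBS were exposed to compound for 3 days. Viability was read by CellTiter-Glo luminescence.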

[5] = molecular target: T1, Pim2 kinase; experiment: Pim2 AlphaScreen assay (high ATP)

Pim1 kinase, sequence (P11309 whole entry): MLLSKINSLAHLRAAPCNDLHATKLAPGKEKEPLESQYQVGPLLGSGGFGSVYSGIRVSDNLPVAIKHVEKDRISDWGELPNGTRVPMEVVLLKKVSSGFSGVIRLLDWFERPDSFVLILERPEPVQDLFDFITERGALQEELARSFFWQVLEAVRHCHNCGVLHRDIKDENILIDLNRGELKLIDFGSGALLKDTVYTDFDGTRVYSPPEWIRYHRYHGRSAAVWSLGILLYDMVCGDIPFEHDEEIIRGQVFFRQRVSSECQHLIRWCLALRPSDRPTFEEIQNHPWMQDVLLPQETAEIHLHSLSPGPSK
T1 sequence (Q9P1W9 whole entry): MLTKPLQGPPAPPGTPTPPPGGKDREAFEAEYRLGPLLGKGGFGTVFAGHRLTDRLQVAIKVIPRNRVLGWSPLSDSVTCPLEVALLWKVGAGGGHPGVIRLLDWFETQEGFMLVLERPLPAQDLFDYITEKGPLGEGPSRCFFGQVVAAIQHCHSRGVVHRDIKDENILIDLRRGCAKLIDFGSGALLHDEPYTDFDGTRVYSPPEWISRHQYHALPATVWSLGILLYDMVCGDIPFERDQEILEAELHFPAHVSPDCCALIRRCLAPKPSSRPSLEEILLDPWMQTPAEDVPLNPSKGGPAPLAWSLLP

| Compound | pIC50 [1] | pIC50 [2] | pIC50 [3] | pEC50 ([4]; Table 4, 3 days) | pEC50 ([4]; Table 5, 3 days) | pIC50 [5] |
| --- | --- | --- | --- | --- | --- | --- |
| C[C@H]1C[C@@H](c2ccncc2NC(=O)c2nc(-c3ncccc3F)c(F)cc2N)C[C@@H](O)C1(C)O (stereo in doubt) [Example 130, 5-amino-N-(4-((1R,3R,4R,5S)-3,4-dihydroxy-4,5-dimethylcyclohexyl)pyridin-3-yl)-3,3′-difluoro-2,2′-bipyridine-6-carboxamide] | 6.42 | 8.01 | 8.06 | 5.05 | 5.05 | 5.67 |
| C[C@@H]1C[C@H](c2ccncc2NC(=O)c2csc(-c3c(F)cccc3F)n2)C[C@H](N)[C@@]1(C)O [Example 25, N-(4-((1S,3S,4S,5R)-3-amino-4-hydroxy-4,5-dimethylcyclohexyl)pyridin-3-yl)-2-(2,6-difluorophenyl)thiazole-4-carboxamide] | 6.00 | 6.95 | 5.70 | – | – | 5.09 |
| C[C@H]1C[C@@H](c2ccncc2NC(=O)c2csc(-c3c(F)cccc3F)n2)C[C@@H](N)[C@]1(C)O [Example 26, N-(4-((1R,3R,4R,5S)-3-amino-4-hydroxy-4,5-dimethylcyclohexyl)pyridin-3-yl)-2-(2,6-difluorophenyl) thiazole-4-carboxamide] | 7.76 | 8.72 | 7.68 | – | – | 6.96 |
| C[C@H]1C[C@@H](c2ccncc2NC(=O)c2ccc(F)c(-c3c(F)cccc3F)n2)C[C@@H](N)[C@]1(C)O [Example 27, N-(4-((1R,3R,4R,5S)-3-amino-4-hydroxy-4,5-dimethylcyclohexyl)pyridin-3-yl)-6-(2,6-difluorophenyl)-5-fluoropicolinamide] | 9.00 | 9.96 | 8.42 | 6.85 | 6.86 | 8.24 |
| C[C@@H]1C[C@H](c2ccncc2NC(=O)c2ccc(F)c(-c3c(F)cccc3F)n2)C[C@H](N)[C@@]1(C)O [Example 28, N-(4-((1S,3S,4S,5R)-3-amino-4-hydroxy-4,5-dimethylcyclohexyl)pyridin-3-yl)-6-(2,6-difluorophenyl)-5-fluoropicolinamide] | 6.86 | 7.74 | 6.64 | – | – | 6.32 |
| C[C@@H]1C[C@H](c2ccncc2NC(=O)c2ccc(F)c(-c3c(F)cccc3F)n2)C[C@H](O)[C@]1(O)CF [Example 29, 6-(2,6-difluorophenyl)-5-fluoro-N-(4-((1S,3S,4S,5R)-4-(fluoromethyl)-3,4-dihydroxy-5-methylyclohexyl)pyridin-3-yl) picolinamide] | 6.70 | 8.17 | 7.83 | 5.49 | 5.49 | 6.37 |
| C[C@H]1C[C@@H](c2ccncc2NC(=O)c2ccc(F)c(-c3c(F)cccc3F)n2)C[C@@H](O)[C@@]1(O)CF [Example 30, 6-(2,6-difluorophenyl)-5-fluoro-N-(4-((1R,3R,4R,5S)-4-(fluoromethyl)-3,4-dihydroxy-5-methylcyclohexyl)pyridin-3-yl) picolinamide] | 7.64 | 9.15 | 8.66 | 6.89 | 6.88 | 7.30 |
| C[C@H]1C[C@@H](c2ccncc2NC(=O)c2ccc(F)c(-c3ccc(F)c(F)c3)n2)C[C@@H](O)[C@]1(C)O [Example 31, 6-(3,4-difluorophenyl)-N-(4-((1R,3R,4R,5S)-3,4-dihydroxy-4,5-dimethylcyclohexyl)pyridin-3-yl)-5-fluoropicolinamide] | 5.26 | 6.67 | 7.03 | ≤ 5.00 | < 5.00 | 4.66 |
| C[C@H]1C[C@@H](c2ccncc2NC(=O)c2nc(-c3nc(F)ccc3F)ccc2N)C[C@@H](O)[C@]1(C)O [Example 125, 5-amino-N-(4-((1R,3R,4R,5S)-3,4-dihydroxy-4,5-dimethylcyclohexyl)pyridin-3-yl)-3′,6′-difluoro-2,2′-bipyridine-6-carboxamide] | 6.22 | 7.64 | 8.23 | – | – | 5.67 |
| C[C@H]1C[C@@H](c2ccncc2NC(=O)c2nc(-c3cccc(F)n3)c(F)cc2N)C[C@@H](O)[C@]1(C)O [Example 126, 5-amino-N-(4-((1R,3R,4R,5S)-3,4-dihydroxy-4,5-dimethylcyclohexyl)pyridin-3-yl)-3,6′-difluoro-2,2′-bipyridine-6-carboxamide] | 5.45 | 7.40 | 7.37 | 5.10 | 5.10 | 4.85 |
| CCOc1cccc(-c2ccc(N)c(C(=O)Nc3cnccc3[C@H]3C[C@@H](O)[C@](C)(O)[C@@H](C)C3)n2)n1 [Example 127, 5-amino-N-(4-((1R,3R,4R,5S)-3,4-dihydroxy-4,5-dimethylcyclohexyl)pyridin-3-yl)-6′-ethoxy-2,2′-bipyridine-6-carboxamide] | 6.21 | 7.92 | 7.70 | 5.86 | 5.86 | 5.04 |
| C[C@H]1C[C@@H](c2ccncc2NC(=O)c2nc(-c3nc(F)c(F)cc3F)ccc2N)C[C@@H](O)[C@]1(C)O [Example 128, 5-amino-N-(4-((1R,3R,4R,5S)-3,4-dihydroxy-4,5-dimethylcyclohexyl)pyridin-3-yl)-3′,5′,6′-trifluoro-2,2′-bipyridine-6-carboxamide] | 5.97 | 7.54 | 8.01 | ≤ 5.00 | < 5.00 | 5.64 |
| C[C@H]1C[C@@H](c2ccncc2NC(=O)c2nc(-c3ccc(F)c(F)c3)ccc2N)C[C@@H](O)[C@]1(C)O [Example 129, 3-amino-6-(3,4-difluorophenyl)-N-(4-((1R,3R,4R,5S)-3,4-dihydroxy-4,5-dimethylcyclohexyl)pyridin-3-yl)picolinamide] | 5.77 | 7.24 | 7.70 | 5.48 | 5.48 | 5.09 |
| Cc1cc(F)c(-c2nc(C(=O)Nc3cnccc3[C@H]3C[C@@H](N)[C@](C)(O)[C@@H](C)C3)c(N)cc2F)c(F)c1 [Example 146, 3-amino-N-(4-((1R,3R,4R,5S)-3-amino-4-hydroxy-4,5-dimethylcyclohexyl)pyridin-3-yl)-6-(2,6-difluoro-4-methylphenyl)-5-fluoropicolinamide] | 9.28 | 10.70 | – | – | 7.31 | 8.78 |
| C[C@H]1C[C@@H](c2ccncc2NC(=O)c2nc(-c3c(F)cccc3F)c(F)cc2N)C[C@@H](N)[C@]1(C)O [Example 147, 3-amino-N-(4-((1R,3R,4R,5S)-3-amino-4-hydroxy-4,5-dimethylcyclohexyl)pyridin-3-yl)-6-(2,6-difluorophenyl)-5-fluoropicolinamide] | 9.28 | 10.40 | – | – | 7.49 | 8.63 |
| C[C@H]1C[C@@H](c2ccncc2NC(=O)c2ccc(F)c(-c3c(F)cc(O[C@@H]4CCCOC4)cc3F)n2)C[C@@H](N)[C@]1(C)O [Example 148, N-(4-((1R,3R,4R,5S)-3-amino-4-hydroxy-4,5-dimethylcyclohexyl)pyridin-3-yl)-6-(2,6-difluoro-4-((R)-tetrahydro-2H-pyran-3-yloxy)phenyl)-5-fluoropicolinamide] | 9.19 | 10.70 | – | – | 7.07 | 8.84 |
